Experimental data published in BindingDB's records for doi:10.1021/jm970333f (University of Catania, 1998).

Test: Inhibition of [3H]pentazocine binding to sigma-1 sites in guinea pig brain membranes

| Structure (SMILES) | Ki [µM] |
| --- | --- |
| C[C@@H]1[C@@H]2Cc3ccc(O)cc3[C@]1(C)CCN2CCN1CCCCCC1 [(2S,6R,11S)-3-(2-Azepan-1-yl-ethyl)-6,11-dimethyl-1,2,3,4,5,6-hexahydro-2,6-methano-benzo[d]azocin-8-ol] | 0.02 |
| C[C@@H]1[C@@H]2Cc3ccc(O)cc3[C@]1(C)CCN2CCN1CCCC1 [(2S,6R,11S)-6,11-Dimethyl-3-(2-pyrrolidin-1-yl-ethyl)-1,2,3,4,5,6-hexahydro-2,6-methano-benzo[d]azocin-8-ol] | 0.0074 |
| CCN(CC)CCN1CC[C@@]2(C)c3cc(O)ccc3C[C@H]1[C@H]2C [(2S,6R,11S)-3-(2-Diethylamino-ethyl)-6,11-dimethyl-1,2,3,4,5,6-hexahydro-2,6-methano-benzo[d]azocin-8-ol] | 0.015 |
| CCN(CCN1CC[C@@]2(C)c3cc(O)ccc3C[C@H]1[C@H]2C)c1ccccc1 [(2S,6R,11S)-3-[2-(Ethyl-phenyl-amino)-ethyl]-6,11-dimethyl-1,2,3,4,5,6-hexahydro-2,6-methano-benzo[d]azocin-8-ol] | 0.042 |
| C=CCN1CCC2c3cc(O)ccc3CC1C2C (configuration not stated) [SK&F-10047] | 0.169 |
| C[C@@H]1[C@@H]2Cc3ccc(O)cc3[C@]1(C)CCN2CCNC1CCCCC1 [(2S,6R,11S)-3-(2-Cyclohexylamino-ethyl)-6,11-dimethyl-1,2,3,4,5,6-hexahydro-2,6-methano-benzo[d]azocin-8-ol] | 0.042 |
| C[C@@H]1[C@@H]2Cc3ccc(O)cc3[C@]1(C)CCN2CCNCc1ccccc1 [(2S,6R,11S)-3-(2-Benzylamino-ethyl)-6,11-dimethyl-1,2,3,4,5,6-hexahydro-2,6-methano-benzo[d]azocin-8-ol] | 0.03 |
| C[C@@H]1[C@@H]2Cc3ccc(O)cc3[C@]1(C)CCN2CCN(C)c1ccccc1 [(2S,6R,11S)-6,11-Dimethyl-3-[2-(methyl-phenyl-amino)-ethyl]-1,2,3,4,5,6-hexahydro-2,6-methano-benzo[d]azocin-8-ol] | 0.0056 |
| C[C@@H]1[C@@H]2Cc3ccc(O)cc3[C@]1(C)CCN2CCNc1ccccc1 [(2S,6R,11S)-6,11-Dimethyl-3-(2-phenylamino-ethyl)-1,2,3,4,5,6-hexahydro-2,6-methano-benzo[d]azocin-8-ol] | 0.0059 |
| C[C@@H]1[C@@H]2Cc3ccc(O)cc3[C@]1(C)CCN2CCN1CCCCC1 [(2S,6R,11S)-6,11-Dimethyl-3-(2-piperidin-1-yl-ethyl)-1,2,3,4,5,6-hexahydro-2,6-methano-benzo[d]azocin-8-ol] | 0.0096 |
| C[C@@H]1[C@@H]2Cc3ccc(O)cc3[C@]1(C)CCN2CCN(C)C [(2S,6R,11S)-3-(2-Dimethylamino-ethyl)-6,11-dimethyl-1,2,3,4,5,6-hexahydro-2,6-methano-benzo[d]azocin-8-ol] | 0.02 |
| C[C@@H]1[C@@H]2Cc3ccc(O)cc3[C@]1(C)CCN2CCN1CCOCC1 [(2S,6R,11S)-6,11-Dimethyl-3-(2-morpholin-4-yl-ethyl)-1,2,3,4,5,6-hexahydro-2,6-methano-benzo[d]azocin-8-ol] | 0.013 |
